Where only a bound is given, the exact number is not on record here.

In assay [1] the target is T1, RARβ (Homo sapiens, UniProt P10826).
T1 sequence (P10826 1-455): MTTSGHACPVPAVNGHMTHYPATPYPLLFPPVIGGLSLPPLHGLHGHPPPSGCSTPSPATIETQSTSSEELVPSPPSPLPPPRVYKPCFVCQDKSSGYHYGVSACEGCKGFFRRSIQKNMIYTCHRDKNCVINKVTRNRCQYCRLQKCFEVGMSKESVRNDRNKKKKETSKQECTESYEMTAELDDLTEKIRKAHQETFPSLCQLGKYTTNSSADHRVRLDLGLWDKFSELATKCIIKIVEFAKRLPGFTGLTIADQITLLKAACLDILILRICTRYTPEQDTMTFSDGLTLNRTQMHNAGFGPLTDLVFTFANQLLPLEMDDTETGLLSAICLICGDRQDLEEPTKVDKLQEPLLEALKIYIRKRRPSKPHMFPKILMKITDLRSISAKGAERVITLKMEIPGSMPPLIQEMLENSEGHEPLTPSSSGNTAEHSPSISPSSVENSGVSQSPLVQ
Briefly: Transactivation, RARβ. Particulars: Table II. Format: cell-based. From the text: (§1) As used herein, the term "transactivation" refers to the ability of a retinoid to activate the transcription of a gene where the gene transcription is initiated by the binding of a ligand to the particular retinoic acid receptor being tested, i.e., RARα, RARβ, or RARγ. Determining the ability of a compound to transactivate a retinoic acid receptor may be performed by methods known to those of skill in the art. […] Apfel etal., Proc. Nat.

For assay [2], the target named is T2, RARγ (Homo sapiens, UniProt P13631).
T2 sequence (P13631 1-454): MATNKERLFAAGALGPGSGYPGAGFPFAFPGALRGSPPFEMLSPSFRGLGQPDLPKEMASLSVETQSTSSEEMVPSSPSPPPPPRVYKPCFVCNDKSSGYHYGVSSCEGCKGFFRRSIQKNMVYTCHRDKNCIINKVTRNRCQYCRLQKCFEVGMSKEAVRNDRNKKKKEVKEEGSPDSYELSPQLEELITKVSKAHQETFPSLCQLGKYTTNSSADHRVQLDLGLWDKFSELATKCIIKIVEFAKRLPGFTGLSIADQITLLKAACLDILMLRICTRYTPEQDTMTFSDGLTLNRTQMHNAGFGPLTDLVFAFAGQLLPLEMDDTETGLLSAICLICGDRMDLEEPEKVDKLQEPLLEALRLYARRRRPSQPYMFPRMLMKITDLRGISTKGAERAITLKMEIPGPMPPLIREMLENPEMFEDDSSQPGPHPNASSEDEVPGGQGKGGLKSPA
The assay is described as follows: Transactivation, RARγ. Format: cell-based.
Text: as §1

The test system of assay [3] is elastase-induced emphysema. Briefly: Alveolar repair in rat model of elastase-induced emphysema, intraperitoneal. Further details: Alveolar Area: unit not given here. Format: in vivo, male Sprague Dawley rats. As to the method:
Animals were divided into treatment groups of approximately eight. […] Three weeks post injury ATRA or a RAR selective agonist was dissolved in DMSO (20 mg/ml) and stored at -20 C. Fresh working stocks were prepared fresh daily by dilution in corn oil to a final concentration of 2 mg/ml. […] Control groups were challenged with elastase and 21 days later treated with Vehicle (DMSO/PBS) for 14 days. Animals were sacrificed 24 hours after the last dose of by exsanguination under deep anesthesia. Blood was collected at time of exanguination for analysis of changes in blood chemistry from respective treatments. The lungs were inflated with 10% neutral buffered formalin by intratracheal instillation at a constant rate (1 ml/gram body mass/min). The lung was excised and immersed in fixative for 24 hours prior to processing. Standard methods were used to prepare 5 um paraffin sections. Sections were stained with Hematoxylin and Eosin (H%E). Computerized Morphometric analysis was performed to determine the average alveolar size and alveolar number.

A further assay deals with T3, RARα (Homo sapiens, UniProt P10276).
T3 sequence (P10276 1-462): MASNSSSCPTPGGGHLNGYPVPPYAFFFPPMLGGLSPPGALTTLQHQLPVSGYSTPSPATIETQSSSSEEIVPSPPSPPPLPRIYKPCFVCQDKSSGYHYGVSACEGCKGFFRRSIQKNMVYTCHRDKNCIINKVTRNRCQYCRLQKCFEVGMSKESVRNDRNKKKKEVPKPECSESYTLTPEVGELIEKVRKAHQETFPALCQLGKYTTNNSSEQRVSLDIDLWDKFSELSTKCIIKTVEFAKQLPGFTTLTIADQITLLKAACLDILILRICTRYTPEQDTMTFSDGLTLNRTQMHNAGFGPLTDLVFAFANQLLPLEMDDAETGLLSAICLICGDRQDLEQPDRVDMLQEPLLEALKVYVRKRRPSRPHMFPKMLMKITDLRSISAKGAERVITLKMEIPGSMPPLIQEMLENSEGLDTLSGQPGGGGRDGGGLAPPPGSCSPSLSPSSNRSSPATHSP
Briefly: Transactivation, RARα. Format: cell-based. Particulars: Table II.
Text: as §1

Assay [4] addresses T2, RARγ. The assay is described as follows: Binding, RARγ (ligand binding assay). From the text: (§2) The RARγ agonist selectivity of a compound can be determined by routine ligand binding assays known to one of skill in the art such as described in C. Apfel et al., Proc. Nat.
For a further assay, the system named is elastase damaged rats. Briefly: Pulmonary gas exchange in elastase damaged rats. Format: in vivo. As to the method:
Pulmonary and arterial blood gases were determined in elastase damaged rats±retinoid treatment prior to termination of study. Rats were placed under deep anesthesia using pentobarbital (50 mg/kg, i.p. and a tracheal cannula (PE 240) was inserted. The rats were artificially ventilated (f=90, TV=approx 0.5 ml/100 g BW) using a small animal respiratory pump (Harvard). For each rat, the pump parameters were adjusted to establish an arterial CO2 level for the pulmonary artery (PCO2) of 30-35 torr. Arterial blood samples (approx 0.2 ml) were taken from the abdominal aorta (AO2) and immediately analyzed by pHOx blood gas. Data are presented as percent (%) recovery relative to elastase +vehicle treated rats.

The target of assay [5] is T1, RARβ. The assay is described as follows: Binding, RARβ (ligand binding assay). Particulars: Table II.
Text: as §2

Turning to `CCCCCCc1cc2c(cc1/C=C/c1ccc(C(=O)O)cc1)C(C)(C)CCC2(C)C` [RAR Agonist 3], the 50% effective concentration (EC50) came out at 88 nM on RARβ [1], 15 nM on RARγ [2] (Table II), 15 nM at RARγ [2] (Table III) and 1000 nM at RARα. For the same molecule, the “% Repair” value in assay [3] (0.5 mg/kg ip once daily, from 21 days post injury, 14 days) is recorded as > 70%. In assay [3] (0.5 mg/kg ip once daily, from 21 days post injury, 14 days, naive 1637 +/- 153, elastase + vehicle 3570 +/- 319), the “Alveolar Area” value was 1929 +/- 150. The “alveolar repair (in words)” value in assay [3] (elastase-treated rats, 0.5 mg/kg ip) is on record as “markedly induce alveolar repair”. Also, the “light micrographs of lung sections (in words)” value in assay [3] (rat lung damaged by elastase and then treated, compared to normal rat lung) is “showed alveolar area similar to the normal rat lung”. The values for the IC50 at RARγ [4] (Table II), on RARγ [4] (Table III) and on RARβ [5] were 210 nM, 210 nM and 3000 nM, respectively. The “PCO2, recovery relative to elastase + vehicle treated rats” value in the assay on elastase damaged rats (0.01 mg/kg) stood at 84.6%. For the same molecule, the “PO2, recovery relative to elastase + vehicle treated rats” value in the assay with elastase damaged rats (0.01 mg/kg) was found to be 49.8%. The “AO2, recovery relative to elastase + vehicle treated rats” value in the assay on elastase damaged rats (abdominal aorta, 0.01 mg/kg) turned out to be 100%. The “gas exchange (in words)” value in the assay on elastase damaged rats (elastase-damaged rats) is “more effective and more potent than the pan agonist (ATRA)”.

For the origin of these results see patent publication US6300350A, “Treatment of emphysema using RARy selective retinoid agonists” (priority 2000, dated 2001).
